According to ChEMBL document CHEMBL1201862, “PubChem BioAssay data set” (2004):
Calls of active or inactive are those of the source.

Legend:
SUMO-activating enzyme [1] = target: T1, SUMO-activating enzyme (Homo sapiens, UniProt Q9UBT2); experiment: inhibitors of in vitro SUMOylation cascade, primary screen, biochemical, HTRF, uHTS (AID 2006); assay type: protein-complex assay
[2] = target: Eukaryotic translation initiation factor 4E (Mus musculus, UniProt P63073); experiment: eIF4E–eIF4G protein interaction inhibitors, dose response, biochemical, TR-FRET (AID 855); assay type: functional;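 also: potency for disrupting eIF4E binding to eIF4GI seen as loss of FRET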
[3] = target: T2, Zinc finger protein mex-5 (Caenorhabditis elegans, UniProt Q9XUB2); experiment: MEX-5/TCR-2 RNA interaction inhibitors, dose response, biochemical, C. elegans, fluorescence polarization (AID 1960)
T2 sequence (Q9XUB2 whole entry): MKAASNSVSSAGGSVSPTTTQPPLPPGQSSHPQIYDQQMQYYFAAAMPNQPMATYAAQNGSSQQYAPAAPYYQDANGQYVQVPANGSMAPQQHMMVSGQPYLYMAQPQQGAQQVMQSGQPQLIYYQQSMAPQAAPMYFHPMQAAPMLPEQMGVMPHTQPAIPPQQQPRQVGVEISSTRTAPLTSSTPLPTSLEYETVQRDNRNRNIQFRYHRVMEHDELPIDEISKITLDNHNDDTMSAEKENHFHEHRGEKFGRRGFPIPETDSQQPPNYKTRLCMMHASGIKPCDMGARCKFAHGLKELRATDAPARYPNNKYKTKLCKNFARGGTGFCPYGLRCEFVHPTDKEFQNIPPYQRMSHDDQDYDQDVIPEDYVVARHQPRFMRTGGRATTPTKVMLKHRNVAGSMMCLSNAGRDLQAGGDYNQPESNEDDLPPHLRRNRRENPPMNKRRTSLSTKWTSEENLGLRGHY

Leucine aminopeptidase = target: T3, Leucine aminopeptidase (Plasmodium falciparum 3D7, UniProt Q8IL11); experiment: P. falciparum M17LAP inhibitors, primary screen, biochemical, fluorogenic H-Leu-NHMec substrate, 1536-well (AID 1619); assay type: functional
T3 sequence (Q8IL11 whole entry): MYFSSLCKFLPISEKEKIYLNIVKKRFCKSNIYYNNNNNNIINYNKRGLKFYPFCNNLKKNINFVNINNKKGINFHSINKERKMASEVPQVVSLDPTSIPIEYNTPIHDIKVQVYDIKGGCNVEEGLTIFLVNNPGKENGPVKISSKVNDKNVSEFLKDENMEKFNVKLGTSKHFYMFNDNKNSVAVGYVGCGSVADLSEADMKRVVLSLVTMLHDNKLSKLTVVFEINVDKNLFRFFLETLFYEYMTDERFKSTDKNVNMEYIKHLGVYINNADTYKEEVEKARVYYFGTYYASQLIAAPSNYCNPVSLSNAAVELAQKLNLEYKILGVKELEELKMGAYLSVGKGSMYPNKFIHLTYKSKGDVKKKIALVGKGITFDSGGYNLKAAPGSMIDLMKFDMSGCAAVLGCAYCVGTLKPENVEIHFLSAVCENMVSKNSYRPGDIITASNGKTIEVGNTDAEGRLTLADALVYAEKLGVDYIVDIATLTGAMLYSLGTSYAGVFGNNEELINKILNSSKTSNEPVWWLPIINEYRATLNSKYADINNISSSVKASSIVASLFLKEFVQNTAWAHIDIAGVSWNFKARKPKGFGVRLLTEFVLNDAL

[4] = target: T4, RNA-binding protein pos-1 (Caenorhabditis elegans, UniProt G5EF15); experiment: inhibitors of POS-1/mex-3 RNA binding, dose response, biochemical, fluorescence polarization (AID 1964);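 also: purified POS-1 fused to maltose binding protein made in E. coli; potency of compounds blocking POS-1 binding to fluorescent RNA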
T4 sequence (G5EF15 whole entry): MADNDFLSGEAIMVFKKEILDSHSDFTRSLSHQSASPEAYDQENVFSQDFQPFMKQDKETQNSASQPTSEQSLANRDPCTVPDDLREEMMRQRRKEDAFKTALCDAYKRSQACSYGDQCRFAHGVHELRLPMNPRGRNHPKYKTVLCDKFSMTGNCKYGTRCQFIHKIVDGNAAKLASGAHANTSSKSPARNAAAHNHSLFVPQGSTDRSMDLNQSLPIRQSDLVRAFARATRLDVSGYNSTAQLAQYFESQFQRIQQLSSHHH

[5] = target: Induced myeloid leukemia cell differentiation protein Mcl-1 (Homo sapiens, UniProt Q07820); assay type: functional
SUMO-activating enzyme [6] = target: T1, SUMO-activating enzyme; experiment: SUMOylation inhibitor hit validation, confirmation, SUMOylation inhibitor project, biochemical, AlphaScreen (AID 2018); assay type: functional
[7] = target: T5, Eukaryotic translation initiation factor 2-alpha kinase 3 (Homo sapiens, UniProt Q9NZJ5); experiment: Counterscreen assay for PERK inhibitors: Dose response cell-based high throughput screening assay to measure inhibition of PERK at 6 hours. [Related pubchem assays: 1522, 1416 ]; assay type: functional
[8] = target: T5, Eukaryotic translation initiation factor 2-alpha kinase 3; experiment: Dose response cell-based high-throughput screening assay to measure PERK inhibition. [Related pubchem assays: 1416 ]; assay type: functional
[9] = target: Acyl-homoserine lactone acylase PvdQ (Pseudomonas aeruginosa (strain LESB58), UniProt Q9I194); experiment: P. aeruginosa PvdQ acylase inhibitors, dose response, biochemical, fluorescence, plate reader and imaging, cherry-picks (AID 493231)
Hexokinase HKDC1 = target: T6, Hexokinase HKDC1 (Homo sapiens, UniProt Q2TB90); experiment: HKDC1 hexokinase inhibitors, dose response, biochemical, W721R variant (AID 504729); assay type: functional
T6 sequence (Q2TB90 whole entry): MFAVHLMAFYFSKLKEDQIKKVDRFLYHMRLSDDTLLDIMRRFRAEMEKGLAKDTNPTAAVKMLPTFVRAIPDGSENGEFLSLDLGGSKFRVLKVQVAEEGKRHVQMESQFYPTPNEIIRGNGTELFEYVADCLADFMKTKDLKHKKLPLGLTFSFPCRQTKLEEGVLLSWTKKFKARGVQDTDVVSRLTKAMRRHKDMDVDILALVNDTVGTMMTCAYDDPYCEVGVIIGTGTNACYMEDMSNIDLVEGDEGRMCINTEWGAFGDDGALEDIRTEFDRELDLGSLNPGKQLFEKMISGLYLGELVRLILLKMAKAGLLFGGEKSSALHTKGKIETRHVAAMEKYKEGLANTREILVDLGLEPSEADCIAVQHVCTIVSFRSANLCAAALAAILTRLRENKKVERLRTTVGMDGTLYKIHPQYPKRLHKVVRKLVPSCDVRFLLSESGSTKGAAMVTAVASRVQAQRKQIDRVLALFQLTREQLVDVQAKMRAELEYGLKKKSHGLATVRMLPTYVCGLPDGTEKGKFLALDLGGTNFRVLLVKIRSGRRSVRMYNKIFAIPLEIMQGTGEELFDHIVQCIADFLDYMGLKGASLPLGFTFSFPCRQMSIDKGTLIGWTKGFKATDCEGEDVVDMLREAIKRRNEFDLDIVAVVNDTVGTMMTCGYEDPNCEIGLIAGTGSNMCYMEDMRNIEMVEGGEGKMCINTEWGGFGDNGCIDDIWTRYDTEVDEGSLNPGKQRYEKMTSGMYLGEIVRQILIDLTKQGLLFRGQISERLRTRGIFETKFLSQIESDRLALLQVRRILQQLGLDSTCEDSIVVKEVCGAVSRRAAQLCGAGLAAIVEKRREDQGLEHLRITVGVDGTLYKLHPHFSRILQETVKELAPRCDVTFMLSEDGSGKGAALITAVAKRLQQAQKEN

Estrogen receptor beta = Estrogen receptor beta (Homo sapiens, UniProt Q92731);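 also: recombinant ER-beta bound to coactivator SRC1 peptide in presence of estradiol agonist; inhibitors block coactivator peptide binding and lower the FRET signal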
Bcl-2-like protein 10 = Bcl-2-like protein 10 (Homo sapiens, UniProt Q9HD36); experiment: displacers of TR3 peptide from Bcl-B, primary screen, selectivity assay for Bfl-1 inhibitor project, biochemical, fluorescence polarization, FITC-TR3 peptide (AID 748);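 also: fluorescence polarization from a fluorescein-labelled TR3 peptide binding purified Bcl-B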
Beta-galactosidase = Beta-galactosidase (Escherichia coli, UniProt Q8VNN2); experiment: beta-galactosidase enzyme inhibitors and activators, dose response, artefact control for CCR6 antagonist project, biochemical, E. coli enzyme, set 3 (AID 504712); assay type: functional
[10] = target: C-C chemokine receptor type 6 (Homo sapiens, UniProt P51684); experiment: CCR6 receptor antagonists, dose response, cell-based, luminescent beta-arrestin readout (AID 504728); assay type: functional
[11] = target: Metabotropic glutamate receptor 4 (Rattus norvegicus, UniProt P31423); experiment: Modulation of the Metabotropic Glutamate Receptor mGluR4: Rat PAM Potency. [Related pubchem assays (depositor defined):AID2437, AID2807]; assay type: functional

CC1=C(C#N)C(=O)NC(=O)/C1=C\c1ccc(-c2ccc(C)cc2[N+](=O)[O-])o1
IC50 (SUMO-activating enzyme [1]): 35.6 µM (active) | IC50 [2]: 50 µM (inactive) | EC50 [3]: 21.8 µM (active) | IC50 (Leucine aminopeptidase): 13.1 µM (active) | EC50 [4]: 36.4 µM (active) | IC50 [5]: 2.68 µM (active) | IC50 (SUMO-activating enzyme [6]): 5.46 µM (active)

Cc1ccc(C)c(OCC(=O)Nc2cc(C(=O)O)cc(C(=O)O)c2)c1
EC50 [7]: > 55.7 µM (not active) | EC50 [8]: > 55.7 µM (not active)

OC(c1cccc(Cl)c1)c1nccc2ccccc12 (stereo not drawn)
AC50 [9]: 7.66 µM (active)

CCOC(=O)c1ccc(NC(=O)CSc2n[nH]c(-c3ccncc3)n2)cc1
IC50 (Hexokinase HKDC1): 12.1 µM (active)

c1coc(-c2nn3c(-c4ccco4)nnc3s2)c1
IC50 (Estrogen receptor beta): 24 µM (active) | IC50 (Bcl-2-like protein 10): 86.5 µM (inactive)

COc1ccc(N2C(=O)/C(=C/C=C/c3ccccc3[N+](=O)[O-])C(=O)NC2=S)cc1
IC50 [2]: 50 µM (inactive) | IC50 (Beta-galactosidase): > 66.6 µM (inactive) | IC50 [5]: 0.73 µM (active) | IC50 [10]: > 66.6 µM (inactive)

O=C(Nc1ccc(N2C(=O)CCC2=O)c(Cl)c1)c1ccccn1
EC50 [11]: 6.89 µM (active)
